The target in assay [1] is T1, CDC25A (Homo sapiens, UniProt P30304).
T1 construct: Recombinant forms of the catalytic domains of CDC25A, -B and -C were obtained through the vectors pET28a-CDC25A-cd, pET28a-CDC25B-cd and pET28a-CDC25C-cd; made in house
T1 sequence (P30304 376-482 limits assumed): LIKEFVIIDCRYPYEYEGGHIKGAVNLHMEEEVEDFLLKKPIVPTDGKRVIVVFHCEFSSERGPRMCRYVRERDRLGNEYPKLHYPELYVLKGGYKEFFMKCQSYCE
The assay is described as follows: Ki from OMFP hydrolysis kinetics (Lineweaver-Burk), CDC25A. The class given is biochemical. The note with it: 20 nM CDC25A, 1–25 μM OMFP; mean ± S.E.; read-out: Ki CDC25A. The procedure:
To measure the inhibition constant (Ki) of the recombinant forms of CDC25A, -B and -C towards the various inhibitors, the affinity of the different forms of CDC25 towards OMFP was measured either in the absence or in the presence of fixed concentrations of the various inhibitors. The reaction mixture contained 20 nM CDC25A, or 10 nM CDC25B, or 40 nM CDC25C, and different concentrations of the various inhibitors in 500 μL final volume of 20 mM Tris-HCl, pH 7.8, 1 mM DTT. DMSO was used as vehicle control. […] The corresponding Lineweaver-Burk plots allowed the calculation of the KM for OMFP and of the Vmax of OMFP hydrolysis, expressed as a.u./minmax. […] The Ki values were obtained from the decrease of a.u./minmax in the presence of the inhibitor, according to the equation a.u./mimmax’ = a.u./mimmax/{1 + ([I]/Ki)}, where a.u./mimmax’ represents the Vmax measured in the presence of the concentration [I] of the inhibitor. The Ki values were obtained from at least three independent experiments and reported as mean ± S.E.

The test system of assay [2] is CDC25A protein levels. The assay is described as follows: Western blotting of CDC25A protein levels in A2058 cells. The note with it: A2058, 100 μM, 2-16 h. The class given is cell-based, human. The procedure: To better investigate the effect of this inhibitor at the molecular level, we evaluated if the treatment of A2058 cells with 7 affected also the protein levels of the three CDC25 forms. […] On the other hand, the protein levels of CDC25B were unaffected by treatment of A2058 cells with 7 up to 16 h.
A2058 cells were seeded into 6-well-plates (3 × 10^5 cells/plate) for 24 h at 37°C and then treated at different times with 100 μM compound 7 or 0.5% DMSO. After treatment, cells were harvested, washed with PBS and then lysed in ice-cold modified radio immunoprecipitation assay (RIPA) buffer (50 mM Tris-HCl, pH 7.4, 150 mM NaCl, 1% Nonidet P-40, 0.25% sodium deoxycholate, 1 mM Na3VO4 and 1 mM NaF), supplemented with protease inhibitors and incubated for 30 min on ice. The supernatant obtained after centrifugation at 12,000 rpm for 30 min at 4°C constituted the total protein extract. The protein concentration was determined by the method of Bradford, using bovine serum albumin (BSA) as standard. Equal amounts of total protein extracts were used for Western blot analysis. […] Membranes were then analysed by an enhanced chemiluminescence reaction, using Super Signal West Pico kit (Pierce) according to manufacturer's instruction; signals were visualized by autoradiography.
A general note: In western blotting, separated proteins are transferred to a membrane and probed.

Assay [3] concerns SAN cells. The assay is described as follows: Apoptosis, subdiploid DNA content by PI flow cytometry, SAN cells. The class given is cell-based, human. An excerpt:
PI incorporation followed by flow cytometric analysis was used to detect the effect of 7 on the number of nuclei with a sub-diploid content, a typical hallmark of apoptosis. A time-dependent increase of apoptosis was evident in both A2058 and SAN cells and in particular, the effect of 7 on cell death program was already evident after 24-h treatment (Figure 7). […] To further investigate on the capacity of 7 to induce apoptosis, the enzymatic activity of caspase-3, the final effector of apoptotic program, was monitored.
[…] After each treatment, cells were harvested with trypsin, centrifuged and the pellet was resuspended in phosphate-buffered saline (PBS). For cell cycle analysis, cells were fixed with 70% (v/v) cold ethanol and stored at −20°C for 1 h. Then, cells were washed with cold PBS, centrifuged and the pellets were resuspended in 200 μL of a non-lysis solution containing 50 μg/mL PI. For the evaluation of apoptosis, cells were not fixed in ethanol and directly resuspended in 200 μL of a hypotonic lysis solution containing 50 μg/mL PI. After incubation at 4°C for 30 min, cells were analyzed with a FACScan flow cytometer (Becton Dickinson) for evaluating the distribution in cell cycle phases or the presence of nuclei with a DNA content lower than the diploid.
(Flow cytometry measures light scatter and fluorescence of single cells or particles in a stream.)

The test system of assay [4] is Bcl-2 and Bax protein levels. The assay is described as follows: Western blotting of Bcl-2 and Bax protein levels in A2058 cells. Format: cell-based, human. The note with it: A2058, 100 μM. How it is done:
Mitochondria represent the primary source of ROS, as well the target of ROS action, and therefore, compound 7 could affect their functionality in melanoma cells. […] Proteins belonging to the B-cell lymphoma-2 (Bcl-2) family are involved in the modulation of the mitochondrial functionality. Therefore, we have evaluated the levels of the anti-apoptotic protein Bcl-2, as well as that of the pro-apoptotic Bcl-2-associated X protein (Bax), after incubation with 7 (Figure 10B). […] To further investigate the occurrence of a mitochondrial-mediated apoptosis induced by 7, the caspase-9 activity was assayed. […] The effect of compound 7 was investigated also in SAN cells and the overall results were similar to those observed in A2058 (Supplementary Figure S6).
A2058 cells were seeded into 6-well-plates (3 × 10^5 cells/plate) for 24 h at 37°C and then treated at different times with 100 μM compound 7 or 0.5% DMSO. After treatment, cells were harvested, washed with PBS and then lysed in ice-cold modified radio immunoprecipitation assay (RIPA) buffer (50 mM Tris-HCl, pH 7.4, 150 mM NaCl, 1% Nonidet P-40, 0.25% sodium deoxycholate, 1 mM Na3VO4 and 1 mM NaF), supplemented with protease inhibitors and incubated for 30 min on ice. The supernatant obtained after centrifugation at 12,000 rpm for 30 min at 4°C constituted the total protein extract. The protein concentration was determined by the method of Bradford, using bovine serum albumin (BSA) as standard. Equal amounts of total protein extracts were used for Western blot analysis. […] The filter was incubated with the specific primary antibody at 4°C overnight and then with the secondary antibody at room temperature for 1 h. Membranes were then analysed by an enhanced chemiluminescence reaction, using Super Signal West Pico kit (Pierce) according to manufacturer's instruction; signals were visualized by autoradiography.

`O=C(O)C1CCCCC1c1c2ccc(=O)cc-2oc2cc(O)ccc12` (centres unmarked) [Compound 7, 2-(6-hydroxy-3-oxo-3H-xanthen-9-yl)cyclohexanecarboxylic acid]: the Ki (as a rule, a dissociation constant, usually derived from enzyme kinetics or from competition with a known ligand) in assay [1] was 650 ± 40 nM. The CDC25A protein levels result in assay [2] was “early reduction of the CDC25A protein levels up to 4 h”. The “level of apoptosis caused by 7 in the presence of Z-VAD-FMK” value in assay [3] (100 μM 7 + 100 μM Z-VAD-FMK, 48 h) is “significantly decreased”. Moreover, the “apoptosis (nuclei with sub-diploid content)” value in assay [3] (100 μM, 24-72 h) is listed as “increase of apoptosis was significant even at 24-h treatment”. Further, the “apoptosis after NAC pre-treatment” value in assay [3] (NAC pre-treatment, 100 μM 7, 48 h) is recorded as “in a great part reverted”. In assay [4] (8 and 16 h), the Bcl-2/Bax ratio result was “significant reduction” and the Bcl-2 protein level entry is “clear reduction of the Bcl-2 level after 8-h treatment”. In addition, in assay [4] (16 h), the Bax protein level entry is on record as “clear increase of Bax”.
